Test results as given in patent publication US10004222B2, “Small molecule ice recrystallization inhibitors and methods of use thereof” (THE UNIVERSITY OF OTTAWA, priority 2012, dated 2018).
Where two headings read alike, the source gives them in different places. One block for each compound: values may come before it. Non-standard residues stand in square brackets, D forms with d. Residues, ends and D or L forms follow the SMILES beside them. *: point of attachment. X1 = O=C(C[C@H]1OC(CO)[C@H](O)[C@H](O)C1O)*; Orn = NCCC[C@H](N)C(=O)O

Tests used:
[1] = test system: human embryonic liver cells; conditions: compared with DMSO; cited from earlier work
[2] = previously demonstrated; cited from earlier work
[3] = previously demonstrated; cited from earlier work; remark: listed apart in the source
[4] = splat cooling ice recrystallization inhibition (IRI) assay; conditions: 0.5 mM
Protocol: In this assay, the area of ice crystals are measured after a 30 minute annealing time at −6.4° C. and compared to a positive control for ice recrystallization resulting in a quantitative measurement of the mean ice grain size. For a positive control, a phosphate buffered saline (PBS) solution was utilized. All samples were normalized to the PBS positive control. The ice recrystallization inhibition activity of the carbohydrate-based non-ionic surfactants n-octyl-β-D-glucopyranoside (compound 3) and n-octyl-β-D-galactopyranoside (compound 4) is shown in FIG. 1.
In this assay, the area of ice crystals are measured after a 30 minute annealing time at −6.4° C. and compared to a positive control for ice recrystallization resulting in a quantitative measurement of the mean ice grain size. For a positive control, a PBS solution was utilized. All samples were normalized to the PBS positive control.
N-aryl-D-gluconamides (3a), (2a), (4a), and (1b) are a class of low molecular weight carbohydrate-based compounds. The ice recrystallization inhibition activity of (3a), (2a), (4a), and (1b) was assessed using a “splat cooling” assay. In this assay, the area of ice crystals are measured after a 30 minutes annealing time at −6.4° C. and compared to a positive control for ice recrystallization resulting in a quantitative measurement of the mean ice grain size. For a positive control, PBS was utilized. All samples were normalized to the PBS positive control.

[5] = thermal hysteresis (TH) activity and dynamic ice shaping, Clifton Nanoliter Osmometer; conditions: 0.01 mg/mL
Protocol: As both compound 4 (at 22 mM) and compound 5 (at 0.5 mM) are novel potent low molecular weight inhibitors of ice recrystallization, whether they were interacting directly with the ice lattice was investigated. Carbohydrate derivatives (compounds 3-6) were examined for TH activity using a Clifton Nanoliter Osmometer. See Tam, R. et al. (2009) “Solution Conformation of C-Linked Antifreeze Glycoprotein Analogues and Modulation of Ice Recrystallization” J. Am. Chem. Soc. 131:15747-15753; Tam, R. et al. (2008) “Hydration Index—A Better Parameter for Explaining Small Molecule Hydration in Inhibition of Ice Recrystallization” J. Am. Chem. Soc. 130: 17494-17501.
In this assay a single droplet of the sample in water was suspended in the center of an oil-filled well in a sample holder plate. The sample was then rapidly frozen using a thermoelectrically controlled microscope stage, then the temperature was raised and the sample melted until only a single ice crystal remained. Once a single ice crystal was obtained, its growth and behavior upon increasing/decreasing the temperature was viewed under a microscope.
The above synthesized C-linked AFGP analogues and carbohydrate derivatives were assessed for TH activity at 10 mg/mL. Compounds 3-6 could not be assessed for TH activity at this concentration due to their amphiphilic nature. […]

[6] = solubility and gelation in water, PBS; assay type: physicochemical

Structure (SMILES): N[C@@H](CCCNC(=O)C[C@H]1OC(CO)[C@H](O)[C@H](O)C1O)C(=O)NCC(=O)NCC(=O)N[C@@H](CCCNC(=O)C[C@H]1OC(CO)[C@H](O)[C@H](O)C1O)C(=O)NCC(=O)NCC(=O)N[C@@H](CCCNC(=O)C[C@H]1OC(CO)[C@H](O)[C@H](O)C1O)C(=O)NCC(=O)NCC(=O)N[C@@H](CCCNC(=O)C[C@H]1OC(CO)[C@H](O)[C@H](O)C1O)C(=O)NCC(=O)NCC(=O)NCC(=O)O (some centres unmarked) [analog 1] (H-[Orn](X1)GG[Orn](X1)GG[Orn](X1)GG[Orn](X1)GGG-OH)
cryoprotective ability [1]: as effective as a 2.5% solution of DMSO | ice recrystallization inhibition activity [2]: potent inhibitors of ice recrystallization | TH activity [3]: do not exhibit TH activity

Structure (SMILES): N[C@@H](CC[C@H]1OC(CO)[C@H](O)[C@H](O)C1O)C(=O)NCC(=O)NCC(=O)N[C@@H](CC[C@H]1OC(CO)[C@H](O)[C@H](O)C1O)C(=O)NCC(=O)NCC(=O)N[C@@H](CC[C@H]1OC(CO)[C@H](O)[C@H](O)C1O)C(=O)NCC(=O)NCC(=O)N[C@@H](CC[C@H]1OC(CO)[C@H](O)[C@H](O)C1O)C(=O)NCC(=O)NCC(=O)NCC(=O)O (some centres unmarked) [analog 2]
ice recrystallization inhibition activity [2]: potent inhibitors of ice recrystallization | TH activity [3]: do not exhibit TH activity

solubility [6]: poor solubilities
Structure (SMILES): CCCCCCCCNC(=O)[C@H](O)[C@@H](O)[C@H](O)[C@H](O)CO [compound 5, N-octyl-D-gluconamide]
ice recrystallization inhibition activity [4]: potent | dynamic ice shaping [5]: do not exhibit this activity

solubility [6]: poor solubilities
Structure (SMILES): CCCCCCCCNC(=O)[C@H](O)[C@@H](O)[C@@H](O)[C@H](O)CO [compound 6, N-octyl-D-galactonamide]
ice recrystallization inhibition activity [4]: only moderate | dynamic ice shaping [5]: do not exhibit this activity
